Reference: patent US20250163119A1, “COMPOUNDS FOR THE TREATMENT OF DIABETES OR OBESITY” (Eli Lilly and Company, priority 2023, published 2025)
*1 amine or outer side, *2 acyl side, *3 side chain or, on linkers, in order; H or OH if unused. Where a SMILES comes first, the peptide text is derived from it. Side-chain parts run from the residue outwards. [ ]: non-standard residue; d: D form. The star is where a group is joined. C20 diacid = O=C(O)CCCCCCCCCCCCCCCCCCC(=O)*; γGlu = O=C(O)[C@H](CCC(=O)[*:2])N[*:1]; εLys = N[C@@H](CCCCN[*:1])C(=O)[*:2]; αMeL = CC(C)C[C@](C)(N)C(=O)O; AEEA = NCCOCCOCC(=O)O; Aib = CC(C)(N)C(=O)O; Ahx = NCCCCCC(=O)O

Tests used:
[1] = target: T1, human CRHR2 (Homo sapiens, UniProt Q13324); experiment: Human CRHR2 cAMP assay (HTRF) in HEK293 cells stably expressing human CRHR2; assay type: cell-based; settings: HEK293 cells overexpressing human CRHR2; relative EC50, maximum 10 nM human UCN2; mean ± SE; read-out: hCRHR2 cAMP EC50 (pM, ± SE)
T1 construct: expressed in transfected cells
T1 sequence (Q13324 1-438 isoform Q13324-2): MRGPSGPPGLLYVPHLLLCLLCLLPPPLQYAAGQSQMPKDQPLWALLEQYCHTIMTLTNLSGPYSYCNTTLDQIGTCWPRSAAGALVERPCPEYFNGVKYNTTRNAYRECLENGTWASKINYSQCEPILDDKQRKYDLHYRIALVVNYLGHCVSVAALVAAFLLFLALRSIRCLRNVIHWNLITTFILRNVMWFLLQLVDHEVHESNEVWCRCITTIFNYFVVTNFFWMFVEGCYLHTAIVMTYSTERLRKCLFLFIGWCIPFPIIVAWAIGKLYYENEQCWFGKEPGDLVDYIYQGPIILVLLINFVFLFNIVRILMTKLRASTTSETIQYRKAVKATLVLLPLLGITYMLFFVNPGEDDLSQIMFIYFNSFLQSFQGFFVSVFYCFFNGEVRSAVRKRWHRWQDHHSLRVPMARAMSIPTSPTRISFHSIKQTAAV
Method: (§1) The corticotropin-releasing hormone (CRH) receptor 1 and 2 (CRHR1 and CRHR2) are GPCRs that were functionally coupled to Gs proteins. Stimulation of these receptors results in an increased production of intracellular cAMP, which can be detected using standard in vitro technologies. In vitro activity of peptides was measured by the amount of cAMP formed in human CRHR1 and CRHR2 overexpressed cells.
(§2) Human CRHR1 and CRHR2 receptors were stably expressed in human embryonic kidney cells (HEK293) under control of a pcDNA expression vector. The HEK293 cell line was cultured in DMEM 1× (Gibco, 93-0152DK) supplemented with 10% FBS, 1 mM sodium pyruvate, 1×MEM NEAA, 1× GlutaMAX and 10 mM HEPES. The plasmids of human CRHR1-pQCXIP (T7364) and human CRHR2b-R2683puro (T16761) DNA were transfected into HEK293 cells using Lipo fectAMINE 3000 Transfection reagent (Invitrogen, L3000001). After 20 days under selection, the mRNA levels from different clones were measured to confirm the expression of human CRHR1 and CRHR2 genes. To determine the function of over-expressed CRHR cells, the intracellular cAMP levels in response to human UCN1 and UCN2 were measured and compared to the expression of CRHR1 and CRHR2 mRNA in each clone.
(§3) Human CRHR1 cells were cultured in DMEM 1× (Gibco, 93-0152DK) supplemented with 10% FBS, 1 mM sodium pyruvate, 1×MEM NEAA, 1×GlutaMAX, 10 mM HEPES, and 800 μg/ml G418. Human CRHR2 cells were cultured at the same media (DMEM 1×, 10% FBS, 1 mM sodium pyruvate, 1×MEM NEAA, 1×GlutaMAX, 10 mM HEPES) in the presence of 0.5 ug/mL puromycin. Cultured cells were grown to 90% confluency and harvested. The cells were frozen at 10×10e6/ml in a mixture of […] fetal bovine serum plus 7% DMSO and stored in liquid nitrogen until use.
(§4) On the day of the assay, the frozen cells were thawed and diluted in assay buffer (Phenol Red free MEM (Corning, 17-305-CV, lot #32121010), 0.1% Casein (Sigma C4765, lot #SLCG2120), 5 mM HEPES pH 7.4 containing 0.25 mM IBMX). 10 ul of human CRHR1 cells (25,000 cells) or 10 μL of human CRHR2 cells (5,000 cells) were dispensed into each well of white poly-D-lysine coated 384-well plates (Corning cat #354661). Test compounds diluted in DMSO were added (200 nL/well) in a 1:3 dilution series using ECHO acoustic liquid handler (Beckman). The mixture of cells and test compounds were incubated at 37° C. for 1 hour for the hCRHR1 plate, while the CRHR2 plates were incubated at room temperature for 30 min.
(§5) The amount of intracellular cAMP was quantitated using HTRF technology (Homogeneous Time Resolved Fluorescence; Cisbio) as per vendor instructions. Briefly, 10 uL CAMP-d2 conjugate and 10 uL anti-CAMP-cryptate conjugate in lysis buffer were incubated with the treated cells at room temperature for 60 min. The HTRF signal was immediately detected using an Envision plate reader (Perkin-Elmer) to calculate the ratio of fluorescence at 665 to 620 nm.
(§6) Raw fluorescence data for concentration curves of the peptides in Table 2 and Table 3 were converted to cAMP amount (pmol/well) using a cAMP standard curve generated for each experiment.

[2] = target: T2, human CRHR1 (Homo sapiens, UniProt P34998); experiment: Human CRHR1 cAMP assay (HTRF) in HEK293 cells stably expressing human CRHR1; assay type: cell-based; settings: HEK293 cells overexpressing human CRHR1; relative EC50, maximum 66 nM human UCN1; mean ± SE; read-out: hCRHR1 cAMP EC50 (pM, ± SE)
T2 construct: expressed in transfected cells
T2 sequence (P34998 24-415): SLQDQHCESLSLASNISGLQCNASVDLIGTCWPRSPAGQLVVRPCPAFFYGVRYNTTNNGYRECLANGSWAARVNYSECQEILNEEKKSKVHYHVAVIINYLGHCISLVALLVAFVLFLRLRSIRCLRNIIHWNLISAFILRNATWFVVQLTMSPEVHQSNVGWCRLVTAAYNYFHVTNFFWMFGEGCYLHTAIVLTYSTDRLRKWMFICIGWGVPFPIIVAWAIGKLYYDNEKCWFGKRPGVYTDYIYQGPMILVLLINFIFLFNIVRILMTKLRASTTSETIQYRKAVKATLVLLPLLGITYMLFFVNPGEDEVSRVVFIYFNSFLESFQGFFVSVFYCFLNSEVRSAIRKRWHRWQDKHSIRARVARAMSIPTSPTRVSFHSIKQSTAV
Method: as §1, §2, §3, §4, §5, §6

Compound	EC50 [1] [pM]	EC50 [2] [pM]
CC[C@H](C)[C@H](NC(C)=O)C(=O)N[C@H](C(=O)N[C@H](C(=O)N[C@@H](CO)C(=O)N[C@@](C)(CC(C)C)C(=O)N[C@@H](CC(=O)O)C(=O)N[C@@H](C(=O)N1CCC[C@H]1C(=O)N[C@H](C(=O)NCC(=O)N[C@@](C)(CC(C)C)C(=O)N[C@@H](CC(C)C)C(=O)N[C@@H](CCC(N)=O)C(=O)N[C@H](C(=O)N[C@@H](CCCCN)C(=O)N[C@@H](CC(C)C)C(=O)N[C@@H](CCC(=O)O)C(=O)N[C@@H](CCC(N)=O)C(=O)N[C@@H](CCC(=O)O)C(=O)N[C@@H](CCCNC(=N)N)C(=O)N[C@@H](C)C(=O)N[C@@H](CCC(=O)O)C(=O)N[C@@H](CCCCN)C(=O)N[C@@H](C)C(=O)N[C@@H](CCCNC(=N)N)C(=O)N[C@@H](CCC(N)=O)C(=O)N[C@@H](CCC(N)=O)C(=O)N[C@@H](C)C(=O)N[C@@H](CCCCNC(=O)CC[C@H](NC(=O)CC[C@H](NC(=O)COCCOCCNC(=O)CCCCCCCCCCCCCCCCCCC(=O)O)C(=O)O)C(=O)O)C(=O)N[C@@H](CCC(=O)O)C(=O)N[C@@H](CC(N)=O)C(=O)N[C@H](C(=O)N[C@@H](CCC(=O)O)C(=O)N[C@H](C(=O)N[C@@H](CC(C)C)C(=O)N[C@@H](C)C(=O)N[C@@H](CCC(N)=O)C(=O)N[C@H](C(N)=O)C(C)C)[C@@H](C)CC)[C@@H](C)O)[C@@H](C)CC)[C@@H](C)O)C(C)C)[C@@H](C)O)C(C)C [SEQ ID NO: 31, Ac-IVTS αMeL D (D-Val) PTG αMeL LQIKLEQERAEKARQQAK((γE)2-(2-[2-(2-Amino-ethoxy)-ethoxy]-acetyl)-CO-(CH2)18-CO2H)ENTEILAQV-NH2] (Ac-IVTS[αMeL]D[dV]PTG[αMeL]LQIKLEQERAEKARQQAK([γGlu-γGlu-AEEA-C20 diacid])ENTEILAQV-NH2)	4.5 ± 0.7	> 1e+07
Ac-GSPSIVTS[αMeL]DVPT[Aib][αMeL]LQKILEQERAEKARQQAK([γGlu-εLys-γGlu-εLys-C20 diacid])EAAEILAQV-NH2 [SEQ ID NO: 18, Ac-GSPSIVTS αMeL DVPT Aib αMeL LQKILEQERAEKARQQAK(γE-ϵK-γE-ϵK-CO-(CH2)18-CO2H)EAAEILAQV-NH2]	10.9 ± 1.3	> 1e+07
Ac-GSPSIVTS[αMeL]DVPT[Aib][αMeL]LQKILEQERAEKARQQAK([γGlu-AEEA-Ahx-C20 diacid])EAAEILAQV-NH2 [SEQ ID NO: 5, Ac-GSPSIVTS αMeL DVPT Aib αMeL LQKILEQERAEKARQQAK(γE-(2-[2-(2-Amino-ethoxy)-ethoxy]-acetyl)-Ahx-CO-(CH2)18-CO2H)EAAEILAQV-NH2]	10.7 ± 0.8	> 1e+07
Ac-GSPSIVTS[αMeL]DVPT[Aib][αMeL]LQKILEQERAEKARQQAKEAAEILAQV-NH2 [SEQ ID NO: 20]	15.3 ± 1.4	> 1e+07
Ac-GSPSIVTS[αMeL]DVPT[Aib][αMeL]LQKILEQERAEKARQQAK([γGlu-Pro-Pro-Pro-εLys-C20 diacid])EAAEILAQV-NH2 [SEQ ID NO: 14, Ac-GSPSIVTS αMeL DVPT Aib αMeL LQKILEQERAEKARQQAK(γE-PPP-EK-CO-(CH2)18-CO2H)EAAEILAQV-NH2]	8.3 ± 0.5	> 1e+07
CC[C@H](C)[C@H](NC(C)=O)C(=O)N[C@H](C(=O)N[C@H](C(=O)N[C@@H](CO)C(=O)N[C@@](C)(CC(C)C)C(=O)N[C@@H](CC(=O)O)C(=O)N[C@@H](C(=O)N1CCC[C@H]1C(=O)N[C@H](C(=O)NCC(=O)N[C@@](C)(CC(C)C)C(=O)N[C@@H](CC(C)C)C(=O)N[C@@H](CCC(N)=O)C(=O)N[C@H](C(=O)N[C@@H](CCCCN)C(=O)N[C@@H](CC(C)C)C(=O)N[C@@H](CCC(=O)O)C(=O)N[C@@H](CCC(N)=O)C(=O)N[C@@H](CCC(=O)O)C(=O)N[C@@H](CCCNC(=N)N)C(=O)N[C@@H](C)C(=O)N[C@@H](CCC(=O)O)C(=O)N[C@@H](CCCCN)C(=O)N[C@@H](C)C(=O)N[C@@H](CCCNC(=N)N)C(=O)N[C@@H](CCC(N)=O)C(=O)N[C@@H](CCC(N)=O)C(=O)N[C@@H](C)C(=O)N[C@@H](CCCCNC(=O)CC[C@H](NC(=O)[C@@H](N)CCCCNC(=O)CC[C@H](NC(=O)CCCCCCCCCCCCCCCCCCC(=O)O)C(=O)O)C(=O)O)C(=O)N[C@@H](CCC(=O)O)C(=O)N[C@@H](CC(N)=O)C(=O)N[C@H](C(=O)N[C@@H](CCC(=O)O)C(=O)N[C@H](C(=O)N[C@@H](CC(C)C)C(=O)N[C@@H](C)C(=O)N[C@@H](CCC(N)=O)C(=O)N[C@H](C(N)=O)C(C)C)[C@@H](C)CC)[C@@H](C)O)[C@@H](C)CC)[C@@H](C)O)C(C)C)[C@@H](C)O)C(C)C [SEQ ID NO: 39, Ac-IVTS αMeL D (D-Val) PTG αMeL LQIKLEQERAEKARQQAK(γE-ϵK-γE-CO-(CH2)18-CO2H)ENTEILAQV-NH2] (Ac-IVTS[αMeL]D[dV]PTG[αMeL]LQIKLEQERAEKARQQAK([γGlu-εLys-γGlu-C20 diacid])ENTEILAQV-NH2)	7.3 ± 0.8	3.7e+06
CC[C@H](C)[C@H](NC(=O)[C@H](CCC(=O)O)NC(=O)[C@H](C)NC(=O)[C@H](C)NC(=O)[C@H](CCC(=O)O)NC(=O)[C@H](CCCCNC(=O)CC[C@H](NC(=O)CNC(=O)[C@H](CCCCN)NC(=O)[C@H](CCC(=O)O)NC(=O)[C@H](CCCCN)NC(=O)[C@H](CCC(=O)O)NC(=O)[C@H](CCCCN)NC(=O)[C@H](CCC(=O)O)NC(=O)CCCCCCCCCCCCCCCCCCC(=O)O)C(=O)O)NC(=O)[C@H](C)NC(=O)[C@H](CCC(N)=O)NC(=O)[C@H](CCC(N)=O)NC(=O)[C@H](CCCNC(=N)N)NC(=O)[C@H](C)NC(=O)[C@H](CCCCN)NC(=O)[C@H](CCC(=O)O)NC(=O)[C@H](C)NC(=O)[C@H](CCCNC(=N)N)NC(=O)[C@H](CCC(=O)O)NC(=O)[C@H](CCC(N)=O)NC(=O)[C@H](CCC(=O)O)NC(=O)[C@H](CC(C)C)NC(=O)[C@@H](NC(=O)[C@H](CCCCN)NC(=O)[C@H](CCC(N)=O)NC(=O)[C@H](CC(C)C)NC(=O)[C@](C)(CC(C)C)NC(=O)C(C)(C)NC(=O)[C@@H](NC(=O)[C@@H]1CCCN1C(=O)[C@@H](NC(=O)[C@H](CC(=O)O)NC(=O)[C@](C)(CC(C)C)NC(=O)[C@H](CO)NC(=O)[C@@H](NC(=O)[C@@H](NC(=O)[C@@H](NC(=O)[C@H](CO)NC(=O)[C@@H]1CCCN1C(=O)[C@H](CO)NC(=O)CNC(C)=O)[C@@H](C)CC)C(C)C)[C@@H](C)O)C(C)C)[C@@H](C)O)[C@@H](C)CC)C(=O)N[C@@H](CC(C)C)C(=O)N[C@@H](C)C(=O)N[C@@H](CCC(N)=O)C(=O)N[C@H](C(N)=O)C(C)C [SEQ ID NO: 6, Ac-GSPSIVTS αMeL DVPT Aib αMeL LQKILEQERAEKARQQAK(γE-GKEKEKE-CO-(CH2)18-CO2H)EAAEILAQV-NH2]	10.1 ± 2.5	> 1e+07
